In ChEMBL document CHEMBL1156849, “Synthesis, immunosuppressive activity and structure-activity relationship study of a new series of 4-N-piperazinyl-thieno[2,3-d]pyrimidine analogues” (Bioorg Med Chem Lett, 2010):

System: Lymphocyte
Test: Immunosuppressive activity in lymphocytes by mixed lymphocyte reaction assay
Format: functional, cell-based

SMILES	IC50 [nM]
Nc1nc(N2CCN(C(=O)CCc3ccccc3)CC2)c2cc(-c3ccc(F)cc3)sc2n1	6990
Nc1nc(N2CCN(C(=O)COc3ccc(F)cc3)CC2)c2ccsc2n1	66
Nc1nc(N2CCN(C(=O)COc3ccc(Br)cc3)CC2)c2ccsc2n1	320
Cc1cccc(NC(=O)N2CCN(c3nc(N)nc4sccc34)CC2)c1	930
Nc1nc(N2CCN(C(=O)Nc3ccc(Cl)cc3)CC2)c2ccsc2n1	6700
CC(C)N(C(=O)N1CCN(c2nc(N)nc3sc(-c4ccc(F)cc4)cc23)CC1)C(C)C	8200
CN(C(=O)CN1CCN(c2nc(N)nc3sccc23)CC1)c1ccccc1	8120
Nc1nc(N2CCN(C(=O)C3CCCCC3)CC2)c2cc(-c3ccc(F)cc3)sc2n1	> 10000
Nc1nc(N2CCN(C(=O)COc3ccc(Cl)cc3)CC2)c2ccsc2n1	330
Nc1nc(N2CCN(C(=O)COc3ccccc3)CC2)c2ccsc2n1	780
Cc1cccc(OCC(=O)N2CCN(c3nc(N)nc4sccc34)CC2)c1	210
COc1ccc(OCC(=O)N2CCN(c3nc(N)nc4sccc34)CC2)cc1	72
Nc1nc(N2CCN(C(=O)c3cccnc3)CC2)c2cc(-c3ccc(F)cc3)sc2n1	> 10000
Nc1nc(N2CCN(CCOc3ccccc3)CC2)c2ccsc2n1	9640
C/C=C/C[C@@H](C)[C@@H](O)[C@H]1C(=O)N[C@@H](CC)C(=O)N(C)CC(=O)N(C)[C@@H](CC(C)C)C(=O)N[C@@H](C(C)C)C(=O)N(C)[C@@H](CC(C)C)C(=O)N[C@@H](C)C(=O)N[C@H](C)C(=O)N(C)[C@@H](CC(C)C)C(=O)N(C)[C@@H](CC(C)C)C(=O)N(C)[C@@H](C(C)C)C(=O)N1C [CYCLOSPORINE]	54
